From ChEMBL document CHEMBL4043168, “The design and SAR of a novel series of 2-aminopyridine based LRRK2 inhibitors” (Bioorg Med Chem Lett, 2017)

Tests used:
[1] = molecular target: T1, Serine/threonine-protein kinase LATS1 (Homo sapiens) (UniProt O95835); assay: Inhibition of LATS1 conserved Lys2 (DIKPDNILIDR) in human PBMC at 1 uM
T1 sequence (whole entry): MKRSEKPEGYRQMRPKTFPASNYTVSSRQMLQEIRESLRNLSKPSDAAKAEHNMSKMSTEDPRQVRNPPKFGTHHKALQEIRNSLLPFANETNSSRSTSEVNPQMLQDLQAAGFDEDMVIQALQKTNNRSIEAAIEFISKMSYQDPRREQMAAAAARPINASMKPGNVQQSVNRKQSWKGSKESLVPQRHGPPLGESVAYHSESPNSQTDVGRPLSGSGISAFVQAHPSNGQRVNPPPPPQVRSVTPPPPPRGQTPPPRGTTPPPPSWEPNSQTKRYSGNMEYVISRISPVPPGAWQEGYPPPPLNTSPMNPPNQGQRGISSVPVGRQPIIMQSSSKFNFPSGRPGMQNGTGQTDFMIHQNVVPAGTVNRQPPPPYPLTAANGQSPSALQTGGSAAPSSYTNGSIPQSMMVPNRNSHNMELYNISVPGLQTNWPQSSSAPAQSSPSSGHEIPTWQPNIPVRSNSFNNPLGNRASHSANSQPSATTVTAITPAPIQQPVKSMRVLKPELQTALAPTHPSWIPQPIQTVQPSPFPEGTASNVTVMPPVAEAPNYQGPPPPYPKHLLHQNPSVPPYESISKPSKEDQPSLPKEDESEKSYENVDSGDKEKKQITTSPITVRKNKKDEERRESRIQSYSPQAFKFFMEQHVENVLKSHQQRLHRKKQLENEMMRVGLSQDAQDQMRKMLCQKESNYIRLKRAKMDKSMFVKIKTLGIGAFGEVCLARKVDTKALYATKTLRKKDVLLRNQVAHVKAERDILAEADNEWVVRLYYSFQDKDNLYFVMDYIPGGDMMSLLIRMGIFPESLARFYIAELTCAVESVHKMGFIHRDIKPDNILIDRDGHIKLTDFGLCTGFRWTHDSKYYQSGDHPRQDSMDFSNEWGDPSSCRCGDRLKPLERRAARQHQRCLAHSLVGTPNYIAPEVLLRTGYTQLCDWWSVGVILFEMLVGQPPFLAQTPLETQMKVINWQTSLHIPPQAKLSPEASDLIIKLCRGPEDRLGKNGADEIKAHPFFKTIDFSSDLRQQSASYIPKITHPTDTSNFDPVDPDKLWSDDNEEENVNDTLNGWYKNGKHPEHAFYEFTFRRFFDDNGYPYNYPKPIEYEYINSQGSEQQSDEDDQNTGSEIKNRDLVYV

[2] = molecular target: Mitogen-activated protein kinase kinase kinase 2 (Homo sapiens) (UniProt Q9Y2U5); assay: Inhibition of MAP3K2 conserved Lys2 (DIKGANILR) in human PBMC at 1 uM
[3] = molecular target: T2, Serine/threonine-protein kinase 4 (Homo sapiens) (UniProt Q13043); assay: Inhibition of MST1 conserved Lys2 (DIKAGNILLNTEGHAK) in human PBMC at 1 uM
T2 sequence (whole entry): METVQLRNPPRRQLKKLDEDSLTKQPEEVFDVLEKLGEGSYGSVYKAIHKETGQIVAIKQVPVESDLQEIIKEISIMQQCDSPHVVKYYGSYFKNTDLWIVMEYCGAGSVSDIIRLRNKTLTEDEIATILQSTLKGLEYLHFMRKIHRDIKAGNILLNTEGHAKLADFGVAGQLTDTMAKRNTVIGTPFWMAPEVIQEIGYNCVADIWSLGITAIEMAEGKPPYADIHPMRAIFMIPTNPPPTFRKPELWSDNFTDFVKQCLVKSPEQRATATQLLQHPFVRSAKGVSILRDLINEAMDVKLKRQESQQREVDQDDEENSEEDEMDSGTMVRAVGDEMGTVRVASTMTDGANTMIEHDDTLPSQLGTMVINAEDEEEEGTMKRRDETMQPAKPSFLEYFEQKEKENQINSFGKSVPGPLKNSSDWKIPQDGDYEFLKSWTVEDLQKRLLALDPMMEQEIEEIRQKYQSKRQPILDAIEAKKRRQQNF

[4] = molecular target: T3, Serine/threonine-protein kinase 3 (Homo sapiens) (UniProt Q13188); assay: Inhibition of MST2 conserved Lys2 (DIKAGNILLNTEGHAK) in human PBMC at 1 uM
T3 sequence (whole entry): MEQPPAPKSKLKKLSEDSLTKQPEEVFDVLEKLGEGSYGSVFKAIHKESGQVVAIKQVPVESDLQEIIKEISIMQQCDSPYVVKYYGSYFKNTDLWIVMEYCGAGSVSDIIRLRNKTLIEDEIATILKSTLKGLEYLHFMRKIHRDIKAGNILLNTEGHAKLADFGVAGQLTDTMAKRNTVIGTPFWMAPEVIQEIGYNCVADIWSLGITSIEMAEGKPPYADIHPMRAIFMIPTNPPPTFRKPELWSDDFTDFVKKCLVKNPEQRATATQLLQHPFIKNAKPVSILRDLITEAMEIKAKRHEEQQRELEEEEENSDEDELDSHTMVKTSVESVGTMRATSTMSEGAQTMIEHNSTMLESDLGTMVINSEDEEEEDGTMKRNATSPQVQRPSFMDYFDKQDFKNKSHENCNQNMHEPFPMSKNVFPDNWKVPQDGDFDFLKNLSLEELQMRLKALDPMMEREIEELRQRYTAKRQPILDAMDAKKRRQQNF

[5] = molecular target: Serine/threonine-protein kinase Nek1 (Homo sapiens) (UniProt Q96PY6); assay: Inhibition of NEK1 conserved Lys2 (DIKSQNIFLTK) in human PBMC at 1 uM
[6] = molecular target: Serine/threonine-protein kinase Sgk3 (Homo sapiens) (UniProt Q96BR1); assay: Inhibition of SGK3 conserved Lys1 (FYAVKVLQK) in human PBMC at 1 uM
[7] = molecular target: Serine/threonine-protein kinase WNK4 (Homo sapiens) (UniProt Q96J92); assay: Inhibition of Wnk4 activation Loop (IGDLGLATLKR) in human PBMC at 1 uM
[8] = molecular target: Interleukin-1 receptor-associated kinase 1 (Homo sapiens) (UniProt P51617); assay: Inhibition of IRAK1 conserved Lys2 (AIQFLHQDSPSLIHGDIKSSNVLLDER) in human PBMC at 0.1 uM
[9] = molecular target: T1, Serine/threonine-protein kinase LATS1 (Homo sapiens); assay: Inhibition of LATS1 conserved Lys2 (DIKPDNILIDR) in human PBMC at 0.1 uM
[10] = molecular target: T2, Serine/threonine-protein kinase 4 (Homo sapiens); assay: Inhibition of MST1 conserved Lys2 (DIKAGNILLNTEGHAK) in human PBMC at 0.1 uM
[11] = molecular target: T3, Serine/threonine-protein kinase 3 (Homo sapiens); assay: Inhibition of MST2 conserved Lys1 (ESGQVVAIKQVPVESDLQEIIK) in human PBMC at 0.1 uM
[12] = molecular target: Serine/threonine-protein kinase WNK1 (Homo sapiens) (UniProt Q9H4A3); assay: Inhibition of Wnk1 activation Loop (IGDLGLATLKR) in human PBMC at 0.1 uM; conditions: pooled result: one value given for 4 cell lines, strains, targets or settings
[13] = Inhibition of GCK conserved Lys2 (DIKGANLLLTLQGDVK) in human PBMC at 1 uM

Chain of Serine/threonine-protein kinase WNK1 (Homo sapiens) (Q9H4A3 whole entry, looked up): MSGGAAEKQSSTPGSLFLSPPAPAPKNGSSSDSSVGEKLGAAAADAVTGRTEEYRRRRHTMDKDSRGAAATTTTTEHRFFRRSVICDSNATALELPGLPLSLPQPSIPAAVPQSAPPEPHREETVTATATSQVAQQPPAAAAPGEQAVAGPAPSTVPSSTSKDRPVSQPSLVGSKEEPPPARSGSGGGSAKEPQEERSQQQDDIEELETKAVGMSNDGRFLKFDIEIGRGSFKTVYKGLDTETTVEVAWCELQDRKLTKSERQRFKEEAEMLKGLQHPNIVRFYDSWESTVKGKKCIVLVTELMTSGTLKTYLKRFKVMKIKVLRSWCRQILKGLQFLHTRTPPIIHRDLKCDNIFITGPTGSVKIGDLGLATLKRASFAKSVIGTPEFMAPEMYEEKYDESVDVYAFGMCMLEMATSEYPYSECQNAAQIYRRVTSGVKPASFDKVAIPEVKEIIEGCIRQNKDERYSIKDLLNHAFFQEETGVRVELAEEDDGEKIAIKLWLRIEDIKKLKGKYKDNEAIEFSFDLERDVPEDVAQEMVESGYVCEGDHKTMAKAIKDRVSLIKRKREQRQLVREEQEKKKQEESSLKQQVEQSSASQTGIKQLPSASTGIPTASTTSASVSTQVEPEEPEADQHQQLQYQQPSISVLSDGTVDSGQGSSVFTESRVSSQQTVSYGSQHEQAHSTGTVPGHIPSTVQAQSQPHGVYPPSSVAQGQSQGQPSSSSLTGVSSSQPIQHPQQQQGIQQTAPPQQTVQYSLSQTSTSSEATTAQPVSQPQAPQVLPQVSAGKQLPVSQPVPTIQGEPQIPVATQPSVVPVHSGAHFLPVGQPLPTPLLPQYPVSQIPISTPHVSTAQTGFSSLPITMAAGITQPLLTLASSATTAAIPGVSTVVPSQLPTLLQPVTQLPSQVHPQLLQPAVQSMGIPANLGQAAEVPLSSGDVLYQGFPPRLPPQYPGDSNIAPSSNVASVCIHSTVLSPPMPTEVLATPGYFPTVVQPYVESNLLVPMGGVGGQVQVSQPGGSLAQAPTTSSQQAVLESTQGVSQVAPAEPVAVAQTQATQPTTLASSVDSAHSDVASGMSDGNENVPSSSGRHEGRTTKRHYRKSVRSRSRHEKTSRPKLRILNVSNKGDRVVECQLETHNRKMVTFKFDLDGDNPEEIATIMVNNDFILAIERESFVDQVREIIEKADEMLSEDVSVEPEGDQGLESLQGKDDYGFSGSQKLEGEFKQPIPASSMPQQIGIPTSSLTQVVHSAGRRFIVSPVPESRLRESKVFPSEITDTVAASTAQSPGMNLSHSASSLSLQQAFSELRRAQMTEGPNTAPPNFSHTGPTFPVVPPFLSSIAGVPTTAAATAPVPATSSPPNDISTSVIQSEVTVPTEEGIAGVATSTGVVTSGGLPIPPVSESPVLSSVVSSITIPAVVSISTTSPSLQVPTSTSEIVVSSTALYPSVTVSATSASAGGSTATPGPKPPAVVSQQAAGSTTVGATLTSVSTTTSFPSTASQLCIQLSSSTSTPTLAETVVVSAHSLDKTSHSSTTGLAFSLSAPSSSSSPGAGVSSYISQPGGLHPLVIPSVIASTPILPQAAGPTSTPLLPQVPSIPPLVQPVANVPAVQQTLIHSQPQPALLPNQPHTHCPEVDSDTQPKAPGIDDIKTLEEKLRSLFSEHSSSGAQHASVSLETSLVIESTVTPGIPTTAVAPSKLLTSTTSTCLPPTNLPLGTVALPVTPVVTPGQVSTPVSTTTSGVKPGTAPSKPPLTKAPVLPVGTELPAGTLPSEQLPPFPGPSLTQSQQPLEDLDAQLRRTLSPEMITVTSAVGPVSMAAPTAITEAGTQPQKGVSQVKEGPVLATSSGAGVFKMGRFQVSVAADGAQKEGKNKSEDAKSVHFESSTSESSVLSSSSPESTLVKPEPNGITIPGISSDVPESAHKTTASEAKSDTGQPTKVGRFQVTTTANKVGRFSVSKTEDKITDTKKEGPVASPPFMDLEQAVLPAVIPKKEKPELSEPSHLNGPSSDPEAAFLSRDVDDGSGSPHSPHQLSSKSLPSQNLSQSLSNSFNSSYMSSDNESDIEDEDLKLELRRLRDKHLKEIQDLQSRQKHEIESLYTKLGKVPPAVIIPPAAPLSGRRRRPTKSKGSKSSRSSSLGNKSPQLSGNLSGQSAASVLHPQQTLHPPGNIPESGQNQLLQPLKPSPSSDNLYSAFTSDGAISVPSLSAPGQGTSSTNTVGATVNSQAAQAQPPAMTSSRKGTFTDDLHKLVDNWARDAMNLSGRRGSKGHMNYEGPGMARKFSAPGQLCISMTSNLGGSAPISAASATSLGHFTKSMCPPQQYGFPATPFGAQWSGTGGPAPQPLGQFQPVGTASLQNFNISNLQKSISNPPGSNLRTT
Chain of Interleukin-1 receptor-associated kinase 1 (Homo sapiens) (P51617 whole entry, looked up): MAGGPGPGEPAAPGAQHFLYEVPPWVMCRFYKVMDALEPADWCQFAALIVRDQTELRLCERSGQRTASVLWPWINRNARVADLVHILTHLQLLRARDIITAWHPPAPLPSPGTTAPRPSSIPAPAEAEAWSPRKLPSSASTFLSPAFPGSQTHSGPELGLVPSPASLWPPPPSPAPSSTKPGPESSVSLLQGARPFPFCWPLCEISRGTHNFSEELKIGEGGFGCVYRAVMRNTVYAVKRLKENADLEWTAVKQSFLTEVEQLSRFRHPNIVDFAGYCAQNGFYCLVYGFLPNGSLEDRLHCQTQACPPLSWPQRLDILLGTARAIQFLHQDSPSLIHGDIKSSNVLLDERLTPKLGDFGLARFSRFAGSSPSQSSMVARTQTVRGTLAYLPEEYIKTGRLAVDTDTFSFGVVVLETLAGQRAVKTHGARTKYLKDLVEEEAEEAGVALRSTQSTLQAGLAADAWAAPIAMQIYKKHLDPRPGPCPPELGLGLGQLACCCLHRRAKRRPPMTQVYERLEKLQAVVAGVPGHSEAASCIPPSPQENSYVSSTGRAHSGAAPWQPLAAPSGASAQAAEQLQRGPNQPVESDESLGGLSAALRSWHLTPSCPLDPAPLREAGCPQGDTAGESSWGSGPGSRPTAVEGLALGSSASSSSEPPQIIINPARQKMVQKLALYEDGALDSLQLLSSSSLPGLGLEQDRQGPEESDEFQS
Chain of Mitogen-activated protein kinase kinase kinase 2 (Homo sapiens) (Q9Y2U5 whole entry): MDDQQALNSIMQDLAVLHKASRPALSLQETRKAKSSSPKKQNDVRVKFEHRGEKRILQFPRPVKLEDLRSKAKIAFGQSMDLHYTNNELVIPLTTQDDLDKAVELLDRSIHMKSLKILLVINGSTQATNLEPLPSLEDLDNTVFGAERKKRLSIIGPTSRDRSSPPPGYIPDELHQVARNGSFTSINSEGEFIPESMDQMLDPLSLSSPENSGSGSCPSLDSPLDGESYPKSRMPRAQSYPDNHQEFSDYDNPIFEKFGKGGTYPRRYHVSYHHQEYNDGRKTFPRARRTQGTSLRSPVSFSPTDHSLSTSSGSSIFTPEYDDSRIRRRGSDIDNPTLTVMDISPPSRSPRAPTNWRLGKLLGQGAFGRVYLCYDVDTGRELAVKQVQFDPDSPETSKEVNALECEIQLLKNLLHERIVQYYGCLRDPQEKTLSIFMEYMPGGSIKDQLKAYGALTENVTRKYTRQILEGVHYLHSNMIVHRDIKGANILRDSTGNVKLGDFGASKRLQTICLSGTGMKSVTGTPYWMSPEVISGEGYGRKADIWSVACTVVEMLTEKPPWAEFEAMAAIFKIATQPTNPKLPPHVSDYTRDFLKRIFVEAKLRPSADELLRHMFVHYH
Chain of Serine/threonine-protein kinase Nek1 (Homo sapiens) (Q96PY6 whole entry): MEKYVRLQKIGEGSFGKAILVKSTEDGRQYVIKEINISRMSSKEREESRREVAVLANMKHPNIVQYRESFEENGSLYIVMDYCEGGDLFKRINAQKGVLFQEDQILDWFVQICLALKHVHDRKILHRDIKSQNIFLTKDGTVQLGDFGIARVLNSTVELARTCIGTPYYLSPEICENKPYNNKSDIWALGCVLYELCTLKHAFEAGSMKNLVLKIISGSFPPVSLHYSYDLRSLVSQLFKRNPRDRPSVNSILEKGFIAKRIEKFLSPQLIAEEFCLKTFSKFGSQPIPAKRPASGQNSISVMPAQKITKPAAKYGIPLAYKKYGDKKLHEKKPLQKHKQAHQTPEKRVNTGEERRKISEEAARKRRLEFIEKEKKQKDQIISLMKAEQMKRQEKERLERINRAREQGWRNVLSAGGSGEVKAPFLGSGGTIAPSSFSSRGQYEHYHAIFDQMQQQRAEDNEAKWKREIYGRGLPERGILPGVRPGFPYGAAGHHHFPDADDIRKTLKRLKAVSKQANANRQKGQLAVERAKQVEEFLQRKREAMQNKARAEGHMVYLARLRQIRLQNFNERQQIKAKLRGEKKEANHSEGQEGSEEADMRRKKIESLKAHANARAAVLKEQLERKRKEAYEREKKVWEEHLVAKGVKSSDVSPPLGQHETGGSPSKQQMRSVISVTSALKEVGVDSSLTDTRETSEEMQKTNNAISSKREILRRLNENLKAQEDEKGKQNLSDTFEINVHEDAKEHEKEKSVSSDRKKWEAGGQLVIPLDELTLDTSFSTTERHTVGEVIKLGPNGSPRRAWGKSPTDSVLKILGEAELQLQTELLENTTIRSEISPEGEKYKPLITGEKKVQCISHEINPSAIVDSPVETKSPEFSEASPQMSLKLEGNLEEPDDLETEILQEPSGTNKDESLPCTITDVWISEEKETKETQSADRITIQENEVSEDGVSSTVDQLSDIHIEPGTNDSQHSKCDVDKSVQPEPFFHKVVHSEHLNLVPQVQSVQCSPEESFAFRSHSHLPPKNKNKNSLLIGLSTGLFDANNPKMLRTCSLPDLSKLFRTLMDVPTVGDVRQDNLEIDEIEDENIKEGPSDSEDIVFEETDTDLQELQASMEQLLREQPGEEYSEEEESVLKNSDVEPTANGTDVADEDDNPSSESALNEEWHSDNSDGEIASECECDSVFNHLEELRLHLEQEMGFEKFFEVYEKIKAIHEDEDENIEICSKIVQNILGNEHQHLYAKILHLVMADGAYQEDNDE

Compound `CC(C)n1cc(-c2cc(-c3ccc(CN4CCOCC4)cc3)cnc2N)nn1` has an inhibition [1] of 30.9%, an inhibition [2] of 29.2% and an inhibition [3] of 0%. For the same compound, the inhibition [4] was 0%, the inhibition [5] was 10% and the inhibition [6] was -2.2%. The inhibition [7] was 21.9%, the inhibition [8] was 22.7% and the inhibition [9] was 34.9%. For the same compound, the inhibition [10] was 1.3%, the inhibition [11] was 7.7% and the inhibition [12] was 21.4%. It also gave an inhibition [13] of 26.2%.
